Measured values: US7943603B2, “Medical uses of a selective estrogen receptor modulator in combination with sex steroid precursors” (Endorecherche, Inc., priority 1998, dated 2011)
“Also recorded” adds a separate entry of the source.

Columns and labels:
[1] = system: ovariectomized (OVX) nude mice supplemented with estrone; test: Uterine, vaginal and body weight in OVX nude mice bearing ZR-75-1 xenografts; settings: OVX+E1 nude mice, 9.5 months
Method: A posteriori pairwise comparisons were performed using Fisher's test for least significant difference. Main effects and the interaction of treatments on body weight and organ weight were analyzed using a standard two-way ANOVA with interactions. All ANOVAs were performed using SAS program (SAS Institute, Cary, N.C., USA). Significance of differences were declared using a 2-tailed test with an overall level of 5%.

rat [2] = test: Urine and serum biochemical parameters of bone metabolism; assay type: in vivo; settings: DHEA 10 mg percutaneously, EM-800 75 μg orally, once daily, alone or in combination, 9 months
Text: (§1) The animals were randomly divided into groups each containing 20 rats with the exception of 40 animals in the control group. […] Treatment was initiated 3 days before the oral administration of DMBA. EM-800 was synthesized in the Medicinal Chemistry Division of our laboratory while DHEA was purchased from Steraloids Inc., Wilton, N.H.
(§2) Twenty-four-hour urinary samples were collected at the end of the experiment from the first 9 rats of each group following transfer in metabolic cages (Allentown Caging Equipment Co., Allentown, N.J.). Two urinary samples were collected and analyzed on different days for each animal in order to minimize the influence of daily variation. Therefore, each value shown represents the mean of the two measurements performed on two different days. 0.5 ml of toluene was added into the urine collecting tubes to prevent urine evaporation and bacterial growth and the urinary volume was recorded. Trunk blood was collected at sacrifice and was allowed to clot at 4° C. overnight before centrifugation at 3000 rpm for 30 min.
(§3) Fresh samples were used for the assay of urinary creatinine, calcium, and phosphorus as well as serum total alkaline phosphatase (tALP) activity, cholesterol and triglycerides. These biochemical parameters were measured automatically with a Monarch 2000 Chemistry System (Instrumentation Laboratory Co. Lexington, Mass.) under Good Laboratory Practice conditions. Urinary hydroxyproline was measured as described (Podenphant et al., Clinica Chimica Acta 142: 145-148, 1984).

[3] = system: DMBA-induced mammary carcinoma; test: Development of DMBA-induced mammary carcinoma in the rat; assay type: in vivo; settings: 279 days after DMBA
Method: (§4) Female Sprague-Dawley rats [Crl:CD(SD)Br] were obtained at 44-46 days of age from Charles River Canada Inc. (St. Constant, Quebec) and housed 2 per cage in a light (12 h light/day; lights on at 07:15 h)-and temperature (22±2° C.)-controlled environment. Animals received Purina rodent chow and tap water ad libitum. The animal studies were conducted in a Canadian Council on Animal Care (CCAC)-approved facility in agreement with the CCAC Guide for Care and Use of Experimental Animals.
Mammary carcinomas were induced by a single intragastric administration of 20 mg of DMBA (Sigma Chemical Co., St. Louis, Mo.) in 1 ml of corn oil at 50-52 days of age. Two months later, tumor measurement was performed biweekly. The two largest perpendicular diameters of each tumor were recorded with calipers to estimate tumor size as described (Asselin et al., Endocrinology 101: 666-671, 1977). Tumor site, size and number were recorded.
as §1
Many of the control animals and some of EM-800- or DHEA-treated animals were sacrificed by cervical dislocation under isoflurane-induced anesthesia 6 months after DMBA administration because of the too large size of tumors. The values of tumor size and number of these rats at sacrifice, together with those measured at later time intervals from the surviving animals, were used for the later analysis of the incidence of tumors, average tumor number per tumor-bearing rat and average tumor size per tumor-bearing animal. […] Rats were sacrificed 279 days after DMBA administration.
Statistical significance was measured according to the multiple range test of Duncan-Kramer (Biometrics 12: 307-310, 1956). Analysis of the incidence of development of mammary tumors was performed using the Fisher's exact test (Conover, Practical nonparametric statistics, 2nd Edition 153-170, 1980). The data are presented as means±S.E.M.

rat [4] = test: Serum triglyceride and cholesterol levels after 9-month treatment; assay type: in vivo; settings: DHEA 10 mg percutaneously, EM-800 75 μg orally, once daily, alone or in combination, 9 months
Text: as §1, §2, §3

estrogen receptor = biological target: T1, estrogen receptor (Homo sapiens, UniProt P03372); test: Testing of antiestrogens for function as SERM
T1 sequence (P03372 1-595): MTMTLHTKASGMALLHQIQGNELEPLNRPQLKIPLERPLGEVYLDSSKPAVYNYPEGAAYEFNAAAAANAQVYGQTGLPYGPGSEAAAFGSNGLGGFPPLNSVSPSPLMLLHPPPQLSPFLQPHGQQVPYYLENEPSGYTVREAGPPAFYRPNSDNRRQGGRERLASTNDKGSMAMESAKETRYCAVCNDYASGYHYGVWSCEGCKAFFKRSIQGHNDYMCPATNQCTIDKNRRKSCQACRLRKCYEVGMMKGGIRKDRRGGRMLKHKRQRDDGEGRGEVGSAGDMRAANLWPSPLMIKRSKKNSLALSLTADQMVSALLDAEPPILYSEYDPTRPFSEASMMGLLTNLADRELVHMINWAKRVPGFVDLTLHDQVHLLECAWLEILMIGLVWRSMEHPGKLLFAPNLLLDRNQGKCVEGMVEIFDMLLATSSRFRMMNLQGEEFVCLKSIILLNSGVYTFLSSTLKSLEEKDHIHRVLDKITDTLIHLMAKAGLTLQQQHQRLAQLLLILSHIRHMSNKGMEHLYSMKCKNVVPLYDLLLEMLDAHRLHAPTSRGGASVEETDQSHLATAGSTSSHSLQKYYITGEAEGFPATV

female rat = test: Bone mineral density (DEXA) after 9-month treatment; assay type: in vivo; settings: DHEA 10 mg percutaneously, EM-800 75 μg orally, once daily, alone or in combination, 9 months
Method: as §4, §1
Rats were anesthetized with an i.p. injection of ketamine hydrochloride and diazepam at doses of 50 and 4 mg/kg B.W., respectively. The whole skeleton and the right femur were scanned using dual energy X-ray absorptiometry (DEXA; QDR 2000-7.10C, Hologic, Waltham, Mass.) equipped with a Regional High Resolution software. The scan field sizes were 28.110×17.805 cm and 5.0×1.902 cm, the resolutions were 0.1511×0.0761 cm and 0.0254×0.0127 cm, while the scan speeds were 0.3608 and 0.0956 mm/sec for total skeleton and femur, respectively. Both bone mineral content (BMC) and bone mineral density (BMD) of total skeleton, lumbar spine, and femur were measured on the scan images of total skeleton and femur.

function as SERM (estrogen receptor): found to function as SERMs
Compound: CC1=C(c2ccc(OC(=O)C(C)(C)C)cc2)[C@H](c2ccc(OCCN3CCCCC3)cc2)Oc2cc(OC(=O)C(C)(C)C)ccc21 [EM-800, (+)-7-pivaloyloxy-3-(4′-pivaloyloxyphenyl)-4-methyl-2-(4″-(2′″-piperidinoethoxy)phenyl)-2H-benzopyran]
vaginal weight ([1]; EM-800 15 μg daily): 23 ± 1 mg | uterine weight ([1]; EM-800 15 μg orally daily): 49 ± 3 mg | vaginal weight ([1]; EM-800 50 μg daily): 15 ± 1 mg | uterine weight ([1]; EM-800 50 μg orally daily): 36 ± 2 mg | vaginal weight ([1]; EM-800 100 μg daily): 11 ± 1 mg | uterine weight ([1]; EM-800 100 μg orally daily): 32 ± 1 mg | effect on body weight adjusted for tumor weight [1]: No significant effect | decrease of daily urinary calcium excretion versus control (rat [2]): no statistically significant influence | decrease of daily urinary phosphorus excretion versus control (rat [2]): no statistically significant influence | decrease of urinary hydroxyproline/creatinine ratio versus control (rat [2]): 48% | increase of serum total alkaline phosphatase (tALP) activity versus control (rat [2]): no statistically significant influence; also recorded: no effect | incidence of DMBA-induced mammary carcinoma (animals with palpable tumors) ([3]; DHEA 10 mg percutaneously, EM-800 75 μg orally, once daily, control 95%): 38% | average tumor number per tumor-bearing animal ([3]; end of experiment, DHEA 10 mg, EM-800 75 μg daily, control 4.7±0.5): 1.4±0.3 tumors/animal | average tumor area per tumor-bearing animal ([3]; end of experiment, DHEA 10 mg, EM-800 75 μg daily, control 12.8±1.3): 7.7±1.8 cm^2 | decrease of serum cholesterol levels (rat [4]): 45% | decrease of serum triglyceride levels (rat [4]): 72% | BMD FEMUR (female rat): 0.3097 ± 0.0047 g/cm2 | BMD LUMBAR SPINE (female rat): 0.1888 ± 0.0045 g/cm2 | BMD TOTAL SKELETON (female rat): 0.1356 ± 0.0017 g/cm2 | increase in BMD of femur versus control (female rat): no significant change | increase in BMD of lumbar spine versus control (female rat): no significant change | increase in BMD of total skeleton versus control (female rat): no significant change
